pIC50: −log10 of the molar value. Where two headings read alike, the source gives them in different places.
How the values were obtained:
OATP1A2 = molecular target: T1, OATP1A2 (Homo sapiens, UniProt P46721); test: OATP1A2-mediated sulforhodamine 101 uptake in A431 cells overexpressing OATP1A2; type: cell-based; conditions: for pIC50: A431-OATP1A2 cells
T1 construct: host or cells: A431
T1 sequence (P46721 1-670): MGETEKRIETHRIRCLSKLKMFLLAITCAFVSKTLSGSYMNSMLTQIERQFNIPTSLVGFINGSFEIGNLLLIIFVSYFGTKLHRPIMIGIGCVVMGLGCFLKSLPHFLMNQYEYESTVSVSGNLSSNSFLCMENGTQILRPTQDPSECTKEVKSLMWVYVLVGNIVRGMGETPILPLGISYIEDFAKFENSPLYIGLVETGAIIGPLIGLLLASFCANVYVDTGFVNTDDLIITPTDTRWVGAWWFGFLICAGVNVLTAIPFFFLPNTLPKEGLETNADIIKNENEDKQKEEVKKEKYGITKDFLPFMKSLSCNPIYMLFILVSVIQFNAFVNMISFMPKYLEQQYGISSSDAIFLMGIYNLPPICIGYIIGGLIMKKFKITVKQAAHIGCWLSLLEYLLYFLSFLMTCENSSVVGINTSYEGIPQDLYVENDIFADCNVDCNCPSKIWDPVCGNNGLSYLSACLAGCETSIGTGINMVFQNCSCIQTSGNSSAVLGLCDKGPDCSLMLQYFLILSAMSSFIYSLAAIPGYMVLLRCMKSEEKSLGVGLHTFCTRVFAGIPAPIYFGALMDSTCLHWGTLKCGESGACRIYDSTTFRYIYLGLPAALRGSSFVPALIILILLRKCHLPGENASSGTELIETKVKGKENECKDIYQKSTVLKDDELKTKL
Description: (§1) A431 cells overexpressing human OATPs, 1A2 (BC042452, HsCD00333163), 1B1 (Gene ID: AB026257), 1B3 (BC141525, HsCD00348132) or 2B1 (BC041095.1, HsCD00378878), or their mock transfected controls, were generated as previously described. Cells were cultured in Dulbecco’s Modified Eagle Medium (DMEM; Thermo Fischer Scientific, Waltham, MA, USA) supplemented with 10% fetal bovine serum, 2 mM L-glutamine, 100 units/mL penicillin and 100 µg/mL streptomycin, at 37 °C with 5% CO2.
(§2) The interaction between flavonoids and OATPs was investigated in an indirect assay employing the fluorescent dye substrates, pyranine and sulforhodamine 101 [51, 52]. Briefly, A431 cell overexpressing OATPs, 1A2, 1B1, 1B3 or 2B1, or their mock transfected controls, were seeded on 96-well plates in a density of 8x10^4 cells/well in 200 μL DMEM one day prior to the transport measurements. […] The reaction was started by the addition of 50 μL uptake buffer containing pyranine in a final concentration of 10 μM (OATP1B1) or 20 μM (OATP1B3 and OATP2B1), or 0.5 μM sulforhodamine 101 (OATP1A2). Thereafter, cells were incubated at 37°C for 15 min (OATP1B1 and OATP2B1), 10 min (OATP1A2), or 30 min (OATP1B3). The reactions were stopped by removing the supernatants, then the cells were washed three times with ice-cold PBS. Fluorescence (in 200 μL PBS/well) was determined employing an Enspire plate reader (Perkin Elmer, Waltham, MA) ex/em: 403/517 nm (pyranine) or 586/605 nm (sulforhodamine 101). OATP-dependent transport was calculated by extracting fluorescence measured in mock transfected cells. Transport activity was calculated based on the fluorescence signal in the absence (100%) of flavonoids. Experiments were repeated at least in three biological replicates. IC50 values were calculated by Hill1 fit, using the Origin Pro8.6 software ([…]).

OATP1B1 = molecular target: T2, OATP1B1 (Homo sapiens, UniProt Q9Y6L6); test: OATP1B1-mediated pyranine uptake in A431 cells overexpressing OATP1B1; type: cell-based
T2 construct: expressed in transfected cells; host or cells: A431
T2 sequence (Q9Y6L6 1-691): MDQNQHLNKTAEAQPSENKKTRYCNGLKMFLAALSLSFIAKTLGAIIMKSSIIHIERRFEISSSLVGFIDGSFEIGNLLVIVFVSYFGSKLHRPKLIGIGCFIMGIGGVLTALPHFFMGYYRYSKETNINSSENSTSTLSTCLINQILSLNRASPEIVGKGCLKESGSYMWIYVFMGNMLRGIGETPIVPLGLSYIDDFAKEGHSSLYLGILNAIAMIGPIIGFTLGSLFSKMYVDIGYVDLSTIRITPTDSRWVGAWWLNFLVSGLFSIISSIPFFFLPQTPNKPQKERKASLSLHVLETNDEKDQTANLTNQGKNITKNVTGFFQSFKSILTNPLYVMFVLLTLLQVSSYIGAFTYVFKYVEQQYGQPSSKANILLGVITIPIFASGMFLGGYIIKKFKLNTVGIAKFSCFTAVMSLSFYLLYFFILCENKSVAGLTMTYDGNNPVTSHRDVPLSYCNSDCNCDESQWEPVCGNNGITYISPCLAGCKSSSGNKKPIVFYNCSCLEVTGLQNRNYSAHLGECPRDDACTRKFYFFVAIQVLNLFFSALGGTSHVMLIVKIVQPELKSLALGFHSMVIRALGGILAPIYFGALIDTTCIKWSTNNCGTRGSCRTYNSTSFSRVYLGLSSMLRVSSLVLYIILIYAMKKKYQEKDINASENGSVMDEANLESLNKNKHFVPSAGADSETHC
Description: as §1, §2

[1] = 0.5 μM sulforhodamine 101, 10 min
[2] = 0.5 μM sulforhodamine 101, 10 min, read-out: IC50 for OATP1A2
[3] = 10 μM pyranine, 15 min, A431-OATP1B1 cells, read-out: IC50 for OATP1B1

Row | SMILES | concentration causing statistically significant (p < 0.01) inhibition, OATP1A2 (OATP1A2; [1]) [µM] | pIC50 (OATP1A2; [2]) | concentration causing statistically significant (p < 0.01) inhibition, OATP1B1 (OATP1B1; 10 μM pyranine, 15 min) [nM] | pIC50 (OATP1B1; [3]) | pIC50 (OATP1A2; IC50 for OATP1A2, 0.5 μM sulforhodamine 101, 10 min) | pIC50 (OATP1B1)
1 | COc1cc(-c2oc3cc(O)cc(O)c3c(=O)c2OC2OC(C(=O)O)C(O)C(O)C2O)ccc1O (centres unmarked) [I3G, isorhamnetin-3-glucuronide] | 12.5 | < 4.52 | 1600 | 5.25 | – | –
2 | COc1cc(-c2oc3cc(O)cc(O)c3c(=O)c2O)ccc1O [IR, isorhamnetin] | 3.1 | – | 3100 | – | < 4.52 | 5.51
3 | O=C(O)C1OC(Oc2c(-c3ccc(O)c(O)c3)oc3cc(O)cc(O)c3c2=O)C(O)C(O)C1O (centres unmarked) [Q3G, quercetin-3-glucuronide] | 25 | < 4.52 | 1600 | 5.39 | – | –
4 | O=c1c(O)c(-c2ccc(O)c(OS(=O)(=O)O)c2)oc2cc(O)cc(O)c12 [Q3′S, quercetin-3′-sulfate] | 0.8 | 5.31 | 300 | 6.48 | – | –
5 | O=c1c(O)c(-c2ccc(O)c(O)c2)oc2cc(O)cc(O)c12 [Q, quercetin] | 3.1 | 5.00 | 1300 | 5.81 | – | –

— publication PMC7468908 (Nutrients, 2020)
